Experimental data taken from publication PMC10382589, “In vitro and in vivo antiplasmodial evaluation of sugar-modified nucleoside analogues” (Scientific Reports, 2023).
“Also recorded” adds a separate entry of the source. Like-named read-outs stand apart in the source and are kept apart here.

What was measured:
[1] = tested on: Pf3D7 chloroquine-sensitive strain; assay: SYBR green I based fluorescence growth inhibition assay, Pf3D7; assay type: cell-based, Plasmodium falciparum; conditions: for IC50 / inhibition at 1 µM: Plasmodium falciparum; for IC50: read-out: IC50 (µM) against Pf3D7; for growth inhibition against Pf3D7 (in words): screen at 1 µM and 10 µM, vs untreated control (Fig. S1); for inhibition at 1 µM: asynchronous culture, one intraerythrocytic cycle (Fig. S1), read-out: inhibition against Pf3D7 at 1 µM
Description: Growth of one intraerythrocytic cycle of Pf was monitored after treated with compounds whereas untreated parasites were considered as control.
(§1) The percent growth inhibition of the parasites was evaluated by SYBR Green assay.
(§2) Pf3D7 and PfRKL-9 were cultured by following procedure reported by Trager and Jensen[33]. […] In order to examine the morphological changes in the parasite, a blood film must be prepared. A thin blood film was air-dried, fixed with methanol, and allowed to dry before staining. […] Light microscopy analysis was carried out to evaluate the inhibitory effect of compounds at different concentrations against Pf3D7 and PfRKL-9.
SYBR green I based fluorescence assay was performed to measure the growth inhibition effect of the 26 compounds and further dose dependent assay against Pf3D7, and PfRKL-9 (Indian field strain, source- NIMR, New Delhi, India) was carried out at different concentrations. […] Parasitized erythrocytes were treated with different concentrations of compounds ranging from 1 µM to 10 µM, whereas DMSO worked as a control. Triplicate wells of parasitized erythrocytes treated with compounds were seeded in 96 well microtiter plate following incubation at 37 °C for one cycle of parasite growth. […] Growth inhibition (%) was calculated as follows: % Inhibition = [1 − % Parasitemia (Treatment)/% Parasitemia (Control)] *100. Data were expressed as mean ± SD.

[2] = tested on: chloroquine resistant strain PfRKL-9; assay: SYBR green I based fluorescence growth inhibition assay, PfRKL-9; assay type: cell-based; conditions: Plasmodium falciparum, synchronized late trophozoite parasites, triplicate, mean ± SD, read-out: IC50 (µM) against PfRKL-9
Description: as §1, §2
SYBR green I based fluorescence assay was performed to measure the growth inhibition effect of the 26 compounds and further dose dependent assay against Pf3D7, and PfRKL-9 (Indian field strain, source- NIMR, New Delhi, India) was carried out at different concentrations. In brief, Pf3D7 and PfRKL-9 parasitized erythrocytes (trophozoite stage with 1% parasitemia) were diluted with noninfected erythrocytes at a constant 2% hematocrit in culture medium. Parasitized erythrocytes were treated with different concentrations of compounds ranging from 1 µM to 10 µM, whereas DMSO worked as a control. Triplicate wells of parasitized erythrocytes treated with compounds were seeded in 96 well microtiter plate following incubation at 37 °C for one cycle of parasite growth. […] Growth inhibition (%) was calculated as follows: % Inhibition = [1 − % Parasitemia (Treatment)/% Parasitemia (Control)] *100. Data were expressed as mean ± SD.

[3] = tested on: embryonic kidney cell lines, HEK-293; conditions: HEK-293 cells, MTT, 48 h incubation
Description: Cytotoxicity against human embryonic kidney cell line (ATCC) was determined using MTT dye[35]. In order to measuring the cytotoxicity of the compounds we used MTT dye to detect live/dead cells. […] cells were stored at 37 °C, 5% CO2 in […] sterile culture flasks (Corning) in complete Dulbecco's Modified Eagle Medium (DMEM) culture medium (a) supplemented with 5% Fetal Bovine Serum (FBS), gentamicin ([…]), with changing the medium thrice a week. The monolayers were washed, counted, diluted in complete medium, distributed in 96-well microtiter plates (5000 cells/well), followed by incubation for another 24 h at 37 °C. The test compounds and DMSO were added in triplicate. After a 48 h incubation at 37 °C, the supernatant was removed and 100 µL of MTT solution in complete DMEM was added to each well, followed by 2 h incubation at 37 °C. The culture plates were read in a spectrophotometer (Tecan infinite M200, nanoquant, UK) with a 490 nm filter, and the cytotoxic concentrations were determined based on a dose response curve.

human RBCs = assay: Hemolytic activity on human RBCs; assay type: cell-based; conditions: 0.5-20 µM, 10% (v/v) RBC suspension, 1 h, absorbance at 415 nm
Description: Effect of compounds on human RBCs was checked with the help of spectrophotometry by measuring the lysis of human red blood cells (hRBCs). Compounds were tested at 0.5, 1, 5, 10 and 20 μM concentrations with 10% (v/v) RBCs suspension for 1 h and observed the percentage of RBCs lysis by compounds 7, 16, 17, 18 and 1.
Human RBCs were from Rotary Blood Bank, Tughlakabad Institutional Area, New Delhi, India. Effect of compounds on RBCs was checked by hemolytic assay. In brief, RBCs suspension with 10% (v/v) washed with 1 × Phosphate-buffered saline (PBS) (pH 7.4) and again resuspended in 1 × PBS. RBCs suspension was incubated with compounds 7, 16, 17, 18 and 1 at different concentrations (0.5, 1, 5, 10 and 20 μM) for 1 h at 37 °C. Samples were centrifuged and supernatant was taken for absorbance at 415 nm. Triton X-100 with 1% (v/v) was used as a positive control. Experiment was done in triplicate.

[4] = tested on: Mitochondrial membrane potential of the malaria parasites; assay: JC-1 mitochondrial membrane potential assay; assay type: cell-based, Plasmodium falciparum; conditions: parasites treated with IC50 concentration for 3 h; untreated control 7.04 ± 1.30
Text: Mitochondrial membrane potential is a marker of mitochondria’s functional status. Modification in mitochondrial membrane potential leading to mitochondrial dysfunction triggers cell death[25],[26]. Mitochondrial dysfunction was detected by using membrane permeant JC-1 dye. JC-1 is a cationic probe, due to electronegative environment inside the functionally active mitochondria with high Δψm, it aggregates in energised mitochondria and gives red color fluorescence at 590 nm, but in case of low Δψm (depolarized state), JC-1 remain in monomeric form and gives green color fluorescence at […]. Decreased ratio of red/green fluorescence intensity of compound treated sample as compared to untreated control indicates depolarized mitochondrial membrane[27],[28]. The damage to the parasite's mitochondria after treatment with compounds 7, 16, 17, 18 and 1 was measured according to the method reported previously. Because of lipophilic nature of the JC-1, it is cell permeable and emits a green signal (525 nm) in the cytoplasm, but the high transmembrane potential of functional mitochondria causes it to aggregate and emit a red signal (590 nm). […]. Mitochondrial membrane potential of the malaria parasites was determined by using MitoProbe™ JC-1 assay as described previously. In brief, trophozoite stage parasites (10–12% parasitemia) were treated with IC50 concentration of compounds 7, 16, 17, 18 and 1 for 3 h at 37 °C in the CO2 incubator. Samples were washed with 1 × PBS by centrifugation at 500 × g for 2 min at RT. Freshly prepared JC-1 dye was added to each sample with working concentration of 5 µg/mL. Incubation was done for 30 min at 37 °C in a CO2 incubator. Cells were washed twice with 1 × PBS. Spectrofluorometer was used to observe mitochondrial membrane potential by measuring fluoroscence intensities from the parasite lysate at wavelength of excitation (520 nm) and emission (590 nm) respectively. In vivo cell imaging was done with the help of Olympus fluoview 3000 confocal microscopy. Live cell imaging was observed under a 100X objective (oil immersion) and band pass filter at 355–460 nm. Experiments were repeated thrice and only representative figures are shown (Fig. 6).

[5] = chloroquine-sensitive strain, synchronized late trophozoite parasites, SYBR Green, triplicate, mean ± SD

SMILES | growth inhibition against Pf3D7 (in words) [1] | inhibition at 1 µM [1] [%] | other results
Cc1cn([C@@H]2O[C@H](CN3C[C@@H](COC(c4ccccc4)(c4ccccc4)c4ccccc4)O[C@@H](n4ccc(=O)[nH]c4=O)C3)[C@H]3OC(C)(C)O[C@H]32)c(=O)[nH]c1=O [Compound 1] | significant growth inhibition in a dose dependent manner; also recorded: good/excellent inhibitory effect |  | IC50 [1, 5]: 1.31 ± 1.1 µM; IC50 [2]: 1.83 ± 0.7 µM; Cell survival (%) at 500 µM [3]: 45%; lysis of human RBCs (in words) (human RBCs): no significant lysis; JC-1 red/green ratio [4]: 5.69 ± 0.70
COc1ccc(C(OC[C@@H]2CN(C[C@H]3O[C@@H](n4cc(C)c(=O)[nH]c4=O)C[C@@H]3O)C[C@H](n3cc(C)c(=O)[nH]c3=O)O2)(c2ccccc2)c2ccc(OC)cc2)cc1 [Compound 3] | remarkable actvity; also recorded: good/excellent inhibitory effect |  | IC50 [1, 5]: 1.19 ± 1.1 µM; IC50 [2]: 4.5 ± 2.5 µM; lysis of human RBCs (in words) (human RBCs): showed cytotoxicity towards human RBCs; also recorded: showed toxicity
Cc1cn([C@@H]2O[C@H](CN3C[C@@H](CN4C[C@@H](COC(c5ccccc5)(c5ccccc5)c5ccccc5)O[C@@H](n5cc(C)c(=O)[nH]c5=O)C4)O[C@@H](n4ccc(=O)[nH]c4=O)C3)[C@H]3OC(C)(C)O[C@H]32)c(=O)[nH]c1=O [Compound 4] | good/excellent inhibitory effect |  | 
Nc1ncnc2c1ncn2[C@@H]1O[C@H](CN2C[C@@H](CO)O[C@@H](n3cnc4c(=O)[nH]cnc43)C2)[C@@H](O)[C@H]1O [Compound 5] | remarkable actvity |  | IC50 [1, 5]: 1.34 ± 2.1 µM; IC50 [2]: 6.23 ± 1.5 µM; lysis of human RBCs (in words) (human RBCs): showed cytotoxicity towards human RBCs; also recorded: showed toxicity
CC1(C)O[C@@H]2[C@H](O1)[C@H](CS[C@@H]1O[C@H](CO)[C@@H](O)[C@H](O)[C@H]1O)O[C@H]2n1cnc2c(NC(c3ccccc3)(c3ccccc3)c3ccccc3)ncnc21 [Compound 8, 1-[2’,3’-O-Isopropylidene-5’-S-(β-D-glucopyranosyl)-5’-thio-α-L-lyxofuranosyl]-N-trityl-adenine] | did not significantly affect the antimalarial activity |  | 
CC(=O)OC[C@H]1O[C@@H](SC[C@@H]2O[C@@H](n3cnc4c(N)ncnc43)[C@H](O)[C@@H]2O)[C@H](OC(C)=O)[C@@H](OC(C)=O)[C@@H]1OC(C)=O [Compound 9, 1-[5’-S-(2,3,4,6-Tetra-O-acetyl-β-D-glucopyranosyl)-5’-thio-α-L-lyxofuranosyl]-adenine] | significant decrease in growth inhibitiory effect |  | 
CCCSC[C@@H]1[C@@H](O[Si](C)(C)C(C)(C)C)[C@H](n2ccc(=O)[nH]c2=O)O[C@@H]1CO[Si](C)(C)C(C)(C)C [Compound 10] |  | 5 to 25 | 
CC(C)(C)[Si](C)(C)OC[C@H]1O[C@@H](n2ccc(=O)[nH]c2=O)[C@H](O[Si](C)(C)C(C)(C)C)[C@H]1CSCc1ccc2ccccc2c1 [Compound 11, 1-[3’-Deoxy-3’-C-(2-naphtyl)methylsulfanylmethyl-2’,5’-di-O-(tert-butyldimethylsilyl)-β-D-xylofuranosyl]-uracil] |  | 5 to 25 | 
COC(=O)[C@H](CSC[C@@H]1[C@@H](O[Si](C)(C)C(C)(C)C)[C@H](n2ccc(=O)[nH]c2=O)O[C@@H]1CO[Si](C)(C)C(C)(C)C)NC(=O)OCC1c2ccccc2-c2ccccc21 [Compound 12, 1-[3’-Deoxy-3’-C-(N-Fmoc-cysteinemethyl ester)thiylmethyl-2’,5’-di-O-(tert-butyldimethylsilyl)-β-D-xylofuranosyl]-uracil] | good/excellent inhibitory effect |  | 
CC(=O)OC[C@H]1O[C@@H](SC[C@@H]2[C@@H](O[Si](C)(C)C(C)(C)C)[C@H](n3ccc(=O)[nH]c3=O)O[C@@H]2CO[Si](C)(C)C(C)(C)C)[C@@H](OC(C)=O)[C@@H](OC(C)=O)[C@@H]1OC(C)=O [Compound 15, 1-[3’-Deoxy-3’-C-(-2,3,4,6-tetra-O-acetyl-β-D-mannopyranosyl-sulfanylmethyl)-2’,5’-di-O-(tert-butyldimethylsilyl)-β-D-xylofuranosyl]-uracil] | more moderate growth inhibitory effect | ~50 | 
CCCCCCCCCCSC[C@@H]1[C@@H](O[Si](C)(C)C(C)(C)C)[C@H](n2cc(C)c(=O)[nH]c2=O)O[C@@H]1CO[Si](C)(C)C(C)(C)C [Compound 19] |  | 5 to 25 | 
CCCCSC[C@H]1[C@@H]2O[Si](C(C)C)(C(C)C)O[Si](C(C)C)(C(C)C)OC[C@H]2O[C@H]1n1ccc(=O)[nH]c1=O [Compound 20, 2’-Deoxy-2’-C-butylsulfanylmethyl-3’,5’-O-(1,1,3,3-tetraisopropyldisiloxane-1,3-diyl)-β-D-arabinofuranosyl-uracil] | good/excellent inhibitory effect |  | 
CCN(CC)CCCC(C)Nc1ccnc2cc(Cl)ccc12 (stereo not shown) [chloroquine, reference compound] |  |  | IC50 [1]: 0.025 µM
